Laboratory results: ChEMBL document CHEMBL4411299, “A class of novel tubulin polymerization inhibitors exert effective anti-tumor activity via mitotic catastrophe” (Eur J Med Chem, 2019)
Calls of active or inactive are those of the source. The rule behind the calls is not given here.

Experiments:
[1] = MRT (0 to t) in Sprague-Dawley rat at 1.5 mg/kg, iv administered as single dose by LC-MS/MS analysis; format: ADME, organism-based; settings: in vivo
[2] = AUC (0 to t) in Sprague-Dawley rat at 1.5 mg/kg, iv administered as single dose by LC-MS/MS analysis; format: ADME, organism-based; settings: in vivo
[3] = Half life in rat liver microsomes at 5 uM in presence of NADPH regenerating system by LC-MS/MS analysis; format: ADME, Microsome
[4] = Half life in monkey liver microsomes at 5 uM in presence of NADPH regenerating system by LC-MS/MS analysis; format: ADME, Macaca mulatta, Microsome; settings: rhesus monkey
HeLa [5] = experiment: Inhibition of colony formation in human HeLa cells at 0.1 uM after 2 weeks by crystal violet staining-based assay relative to control; format: functional; settings: 336 h
HeLa [6] = experiment: Induction of apoptosis in human HeLa cells assessed as late apoptotic cells at 0.1 uM after 24 hrs by Annexin V-FITC/propidium iodide staining-based flow cytometric analysis (reference value: 3.51%); format: functional
A549 = experiment: Antiproliferative activity against human A549 cells after 48 hrs by MTT assay; format: functional; settings: A549, 48 h
[7] = MRT (0 to t) in female Sprague-Dawley rat at 1.5 mg/kg, iv administered as single dose by LC-MS/MS analysis; format: ADME, organism-based; settings: in vivo
[8] = AUC (0 to infinity) in Sprague-Dawley rat at 1.5 mg/kg, iv administered as single dose by LC-MS/MS analysis; format: ADME, organism-based; design: dose 1.5 mg/kg, route intravenous, time infinity; settings: in vivo
[9] = Apparent volume of distribution in female Sprague-Dawley rat at 1.5 mg/kg, iv administered as single dose by LC-MS/MS analysis; format: ADME, organism-based; settings: in vivo, read-out: Vd(app)
HeLa [10] = experiment: Antitumor activity against human HeLa cells xenografted in nude mouse assessed as tumor growth inhibition at 20 mg/kg, iv administered every other day up to 20 days relative to control; format: functional; settings: 480 h, read-out: TGI
HeLa [11] = experiment: Induction of apoptosis in human HeLa cells assessed as viable cells at 0.05 uM after 24 hrs by Annexin V-FITC/propidium iodide staining-based flow cytometric analysis (reference value: 92.8%); format: functional; settings: read-out: Activity
HeLa [12] = experiment: Induction of apoptosis in human HeLa cells assessed as viable cells at 0.1 uM after 24 hrs by Annexin V-FITC/propidium iodide staining-based flow cytometric analysis (reference value: 92.8%); format: functional; settings: read-out: Activity
HeLa [13] = experiment: Antitumor activity against human HeLa cells xenografted in nude mouse assessed as tumor weight at 20 mg/kg, iv administered every other day up to 20 days (reference value: 1.014 +/- 0.116g); format: functional
[14] = Cmax in male Sprague-Dawley rat at 1.5 mg/kg, iv administered as single dose by LC-MS/MS analysis; format: ADME, organism-based; design: dose 1.5 mg/kg, route intravenous; settings: in vivo
[15] = Half life in Sprague-Dawley rat at 1.5 mg/kg, iv administered as single dose by LC-MS/MS analysis; format: ADME, organism-based; settings: in vivo
Tubulin (Homo sapiens) [16] = molecular target: T1, Tubulin (Homo sapiens) (UniProt P68371+Q9H4B7+P0DPH7+P68366+Q13509+Q71U36+P04350+Q3ZCM7+P07437+P68363+Q9BQE3+Q6PEY2+Q13885+Q9BVA1+Q9BUF5); experiment: Inhibition of tubulin polymerization in human HeLa cells assessed as induction of microtubule fiber breakdown at 0.02 uM after 12 hrs by DAPI staining-based confocal fluorescence microscopic analysis; format: cell-based
[17] = Cmax in Sprague-Dawley rat at 1.5 mg/kg, iv administered as single dose by LC-MS/MS analysis; format: ADME, organism-based; design: dose 1.5 mg/kg, route intravenous; settings: in vivo
HeLa [18] = experiment: Induction of apoptosis in human HeLa cells assessed as late apoptotic cells at 0.05 uM after 24 hrs by Annexin V-FITC/propidium iodide staining-based flow cytometric analysis (reference value: 3.51%); format: functional
HeLa [19] = experiment: Induction of apoptosis in human HeLa cells assessed as early apoptotic cells at 0.05 uM after 24 hrs by Annexin V-FITC/propidium iodide staining-based flow cytometric analysis (reference value: 3.65%); format: functional
HeLa [20] = experiment: Induction of apoptosis in human HeLa cells assessed as increase in cleaved PARP level at 0.02 to 0.1 uM after 24 hrs by Western blot analysis; format: functional, cell-based
HeLa [21] = experiment: Antitumor activity against human HeLa cells xenografted in nude mouse assessed as tumor weight at 10 mg/kg, iv administered every other day up to 20 days (reference value: 1.014 +/- 0.116g); format: functional
Tubulin (Homo sapiens) [22] = molecular target: T1, Tubulin (Homo sapiens); experiment: Inhibition of tubulin polymerization in human HeLa cells assessed as induction of mitotic phase arrest at 0.02 uM after 12 hrs by DAPI staining-based confocal fluorescence microscopic analysis; format: cell-based
[23] = Toxicity in mouse xenografted with human HeLa cells assessed as effect on body weight at 5 to 20 mg/kg, iv administered every other day up to 20 days; format: organism-based; settings: in vivo, 480 h
Tubulin (Homo sapiens) [24] = molecular target: T1, Tubulin (Homo sapiens); experiment: Inhibition of tubulin polymerization in human HeLa cells assessed as multipolar spindle formation at 0.02 after 12 hrs by DAPI staining-based confocal fluorescence microscopic analysis; format: cell-based
[25] = MRT (0 to infinity) in Sprague-Dawley rat at 1.5 mg/kg, iv administered as single dose by LC-MS/MS analysis; format: ADME, organism-based; settings: in vivo
HeLa [26] = experiment: Antitumor activity against human HeLa cells xenografted in nude mouse assessed as tumor weight at 5 mg/kg, iv administered every other day up to 20 days (reference value: 1.014 +/- 0.116g); format: functional
[27] = Toxicity in mouse xenografted with human HeLa cells assessed as change in spleen weight at 5 to 20 mg/kg, iv administered every other day up to 20 days; format: organism-based; settings: in vivo, 480 h
Tubulin (Homo sapiens) [28] = molecular target: T1, Tubulin (Homo sapiens); experiment: Inhibition of tubulin polymerization in human HeLa cells assessed as induction of multinuclear giant cells at 0.05 after 12 hrs by DAPI staining-based confocal fluorescence microscopic analysis; format: cell-based
HeLa [29] = experiment: Inhibition of colony formation in human HeLa cells after 2 weeks by crystal violet staining-based assay; format: functional, cell-based
HeLa [30] = experiment: Cell cycle arrest in human HeLa cells assessed as reduction in accumulation of cells at G1 phase up to 0.4 uM after 24 hrs by propidium iodide staining-based flow cytometric analysis; format: functional
A2780 = experiment: Antiproliferative activity against human A2780 cells after 48 hrs by MTT assay; format: functional; settings: A2780, 48 h
[31] = Clearance in female Sprague-Dawley rat at 1.5 mg/kg, iv administered as single dose by LC-MS/MS analysis; format: ADME, organism-based; settings: in vivo
Tubulin (Homo sapiens) [32] = molecular target: T1, Tubulin (Homo sapiens); experiment: Inhibition of tubulin polymerization in human HeLa cells assessed as induction of shorter microtubule fibers at 0.02 uM after 12 hrs by DAPI staining-based confocal fluorescence microscopic analysis; format: cell-based
HeLa [33] = experiment: Cell cycle arrest in human HeLa cells assessed as reduction in accumulation of cells at S phase up to 0.4 uM after 24 hrs by propidium iodide staining-based flow cytometric analysis; format: functional
[34] = Cmax in female Sprague-Dawley rat at 1.5 mg/kg, iv administered as single dose by LC-MS/MS analysis; format: ADME, organism-based; design: dose 1.5 mg/kg, route intravenous; settings: in vivo
HeLa [35] = experiment: Induction of apoptosis in human HeLa cells assessed as necrotic cells at 0.05 uM after 24 hrs by Annexin V-FITC/propidium iodide staining-based flow cytometric analysis (reference value: 0.05%); format: functional

MRT last [1]: 54.6 min
AUC(0-t) [2]: 0.397 µg·h/mL
half-life at 5 µM [3]: 37 min
half-life at 5 µM [4]: 123 min
GI50 (A549): 0.3 µM
MRT last [7]: 57.6 min
AUC(0-inf) [8]: 0.414 µg·h/mL
Vd [9]: 6.24 L/kg
Cmax [14]: 0.658 µg/mL
half-life [15]: 54 min
Activity (Tubulin (Homo sapiens) [16]): Active
Cmax [17]: 0.595 µg/mL
Activity (Tubulin (Homo sapiens) [22]): Active
Activity (Tubulin (Homo sapiens) [24]): Active
MRT inf [25]: 65.4 min
Activity (Tubulin (Homo sapiens) [28]): Active
GI50 (A2780): 0.6 µM
clearance [31]: 4.78 L/h/kg
Activity (Tubulin (Homo sapiens) [32]): Active
Cmax [34]: 0.531 µg/mL
SMILES: COC(=O)N1N=C(c2cccc(C)c2)CC1c1cc(OC)c(OC)c(OC)c1 (configuration not stated)
inhibition at 0.1 µM (HeLa [5]): ≤ 80%
Activity (HeLa [6]): 6.03%
inhibition in vivo at 20 mg/kg (HeLa [10]): 72.9%
viability at 0.05 µM (HeLa [11]): 84.4%
viability at 0.1 µM (HeLa [12]): 75.8%
Activity (HeLa [13]): 0.266 g
Activity (HeLa [18]): 4.95%
Activity (HeLa [19]): 10.2%
Activity (HeLa [20]): Active
Activity (HeLa [21]): 0.631 g
Activity [23]: Non-Toxic
Activity (HeLa [26]): 0.812 g
Activity [27]: Non-Toxic
inhibition (HeLa [29]): Dose-dependent effect
Activity (HeLa [30]): Active
Activity (HeLa [33]): Active
Activity (HeLa [35]): 0.46%
